Read-outs that look alike come from different tables or passages of the source.

In one test the target is human TLR7 (Homo sapiens (Human), UniProt Q9NYK1). Kind of test: TLR7 inhibition reporter assay (HEK-Blue SEAP). Format: cell-based. In general terms: Reporter assays use an easily measured gene product as a stand-in for the process of interest.
Another test addresses human TLR9 (Homo sapiens (Human), UniProt Q9NR96). The test can be described thus: TLR9 inhibition reporter assay (HEK-Blue SEAP).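 Also: SEAP driven by an IFN-β minimal promoter with NF-κB and AP-1 sites, read after 22 h, compounds dosed 0.05 nM–50 µM, inhibition scaled between agonist plus DMSO and reference-inhibitor wells.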
For the next test, the target named is human TLR8 (Homo sapiens (Human), UniProt Q9NR97). The test can be described thus: TLR8 inhibition reporter assay (HEK-Blue SEAP).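 Also: SEAP driven by IFN-β minimal promoter carrying NF-κB and AP-1 sites, compounds dosed 0.05 nM to 50 µM for 22 h, inhibition scaled between agonist-plus-DMSO and reference-inhibitor wells.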
[1] abbreviates: HEK-Blue human TLR7 cells, gardiquimod 7.5 μM.
Where [2] appears, read: read-out: TLR9 IC50, HEK-Blue human TLR9 cells, ODN2006 5 nM.
The mark [3] stands for this setting: read-out: TLR8 IC50, HEK-Blue human TLR8 cells, R848 15.9 μM.
[4] abbreviates: HEK-Blue cells overexpressing human TLR7, SEAP reporter, gardiquimod 7.5 μM.
The mark [5] stands for this setting: read-out: TLR9 IC50, HEK-Blue cells overexpressing human TLR9, SEAP reporter, ODN2006 5 nM.
The mark [6] stands for this setting: read-out: TLR8 IC50, HEK-Blue cells overexpressing human TLR8, SEAP reporter, R848 15.9 μM.
Setting [7] is: HEK-Blue cells overexpressing human TLR7, gardiquimod 7.5 μM stimulation, SEAP reporter.
The mark [8] stands for this setting: read-out: TLR9 IC50, HEK-Blue cells overexpressing human TLR9, ODN2006 5 nM stimulation, SEAP reporter.
Where [9] appears, read: read-out: TLR8 IC50, HEK-Blue cells overexpressing human TLR8, R848 15.9 μM stimulation, SEAP reporter.

Chain of human TLR8 (Q9NR97 27-1041): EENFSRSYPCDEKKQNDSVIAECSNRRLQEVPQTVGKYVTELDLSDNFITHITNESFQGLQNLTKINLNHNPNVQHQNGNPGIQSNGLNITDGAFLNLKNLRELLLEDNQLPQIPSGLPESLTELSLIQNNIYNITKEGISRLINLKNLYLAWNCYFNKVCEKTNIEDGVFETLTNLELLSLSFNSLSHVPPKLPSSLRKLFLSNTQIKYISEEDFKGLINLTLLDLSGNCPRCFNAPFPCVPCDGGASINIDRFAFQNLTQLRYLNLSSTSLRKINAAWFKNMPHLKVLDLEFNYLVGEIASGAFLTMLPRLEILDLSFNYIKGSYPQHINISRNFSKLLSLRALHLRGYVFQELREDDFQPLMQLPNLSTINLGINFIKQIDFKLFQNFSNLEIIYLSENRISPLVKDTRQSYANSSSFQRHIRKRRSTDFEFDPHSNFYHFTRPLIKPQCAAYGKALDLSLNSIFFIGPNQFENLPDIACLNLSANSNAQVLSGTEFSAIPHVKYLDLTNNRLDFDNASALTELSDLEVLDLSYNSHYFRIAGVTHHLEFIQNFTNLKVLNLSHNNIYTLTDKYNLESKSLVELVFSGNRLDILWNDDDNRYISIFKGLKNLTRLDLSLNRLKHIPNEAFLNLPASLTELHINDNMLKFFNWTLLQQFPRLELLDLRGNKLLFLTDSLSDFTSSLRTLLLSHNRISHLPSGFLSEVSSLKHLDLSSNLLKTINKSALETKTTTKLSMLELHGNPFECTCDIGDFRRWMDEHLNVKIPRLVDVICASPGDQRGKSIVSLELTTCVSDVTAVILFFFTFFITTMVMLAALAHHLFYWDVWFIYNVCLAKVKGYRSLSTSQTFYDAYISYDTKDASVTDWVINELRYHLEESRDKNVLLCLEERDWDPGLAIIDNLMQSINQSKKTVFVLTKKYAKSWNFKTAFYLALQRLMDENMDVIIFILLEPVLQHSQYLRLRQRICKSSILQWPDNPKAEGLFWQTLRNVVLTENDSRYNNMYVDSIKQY
Chain of human TLR9 (Q9NR96 26-1032): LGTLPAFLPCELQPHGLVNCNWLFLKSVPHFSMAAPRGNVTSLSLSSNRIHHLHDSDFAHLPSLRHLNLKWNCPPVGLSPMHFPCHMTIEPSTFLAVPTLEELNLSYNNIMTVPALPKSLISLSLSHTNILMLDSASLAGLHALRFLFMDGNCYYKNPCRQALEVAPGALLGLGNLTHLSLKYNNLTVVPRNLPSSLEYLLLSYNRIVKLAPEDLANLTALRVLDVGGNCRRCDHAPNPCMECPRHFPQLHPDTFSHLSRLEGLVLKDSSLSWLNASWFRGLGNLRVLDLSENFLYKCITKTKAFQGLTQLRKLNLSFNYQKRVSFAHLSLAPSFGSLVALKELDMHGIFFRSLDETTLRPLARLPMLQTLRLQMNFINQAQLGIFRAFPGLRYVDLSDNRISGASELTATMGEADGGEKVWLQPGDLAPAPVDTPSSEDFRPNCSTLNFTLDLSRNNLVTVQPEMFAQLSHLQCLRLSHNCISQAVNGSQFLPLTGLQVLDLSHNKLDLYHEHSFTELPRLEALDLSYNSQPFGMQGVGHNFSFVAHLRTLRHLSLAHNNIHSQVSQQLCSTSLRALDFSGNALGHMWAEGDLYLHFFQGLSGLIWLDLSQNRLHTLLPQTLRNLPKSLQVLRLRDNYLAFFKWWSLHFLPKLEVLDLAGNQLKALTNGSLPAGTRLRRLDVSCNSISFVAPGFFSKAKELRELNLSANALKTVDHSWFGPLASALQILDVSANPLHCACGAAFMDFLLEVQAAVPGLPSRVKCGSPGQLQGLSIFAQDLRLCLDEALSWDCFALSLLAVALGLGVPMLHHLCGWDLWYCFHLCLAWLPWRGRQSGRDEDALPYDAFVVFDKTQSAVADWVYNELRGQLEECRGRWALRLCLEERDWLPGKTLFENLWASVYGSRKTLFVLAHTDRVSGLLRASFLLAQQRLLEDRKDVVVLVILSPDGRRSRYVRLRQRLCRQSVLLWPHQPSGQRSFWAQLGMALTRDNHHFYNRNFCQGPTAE
Chain of human TLR7 (Q9NYK1 27-1049): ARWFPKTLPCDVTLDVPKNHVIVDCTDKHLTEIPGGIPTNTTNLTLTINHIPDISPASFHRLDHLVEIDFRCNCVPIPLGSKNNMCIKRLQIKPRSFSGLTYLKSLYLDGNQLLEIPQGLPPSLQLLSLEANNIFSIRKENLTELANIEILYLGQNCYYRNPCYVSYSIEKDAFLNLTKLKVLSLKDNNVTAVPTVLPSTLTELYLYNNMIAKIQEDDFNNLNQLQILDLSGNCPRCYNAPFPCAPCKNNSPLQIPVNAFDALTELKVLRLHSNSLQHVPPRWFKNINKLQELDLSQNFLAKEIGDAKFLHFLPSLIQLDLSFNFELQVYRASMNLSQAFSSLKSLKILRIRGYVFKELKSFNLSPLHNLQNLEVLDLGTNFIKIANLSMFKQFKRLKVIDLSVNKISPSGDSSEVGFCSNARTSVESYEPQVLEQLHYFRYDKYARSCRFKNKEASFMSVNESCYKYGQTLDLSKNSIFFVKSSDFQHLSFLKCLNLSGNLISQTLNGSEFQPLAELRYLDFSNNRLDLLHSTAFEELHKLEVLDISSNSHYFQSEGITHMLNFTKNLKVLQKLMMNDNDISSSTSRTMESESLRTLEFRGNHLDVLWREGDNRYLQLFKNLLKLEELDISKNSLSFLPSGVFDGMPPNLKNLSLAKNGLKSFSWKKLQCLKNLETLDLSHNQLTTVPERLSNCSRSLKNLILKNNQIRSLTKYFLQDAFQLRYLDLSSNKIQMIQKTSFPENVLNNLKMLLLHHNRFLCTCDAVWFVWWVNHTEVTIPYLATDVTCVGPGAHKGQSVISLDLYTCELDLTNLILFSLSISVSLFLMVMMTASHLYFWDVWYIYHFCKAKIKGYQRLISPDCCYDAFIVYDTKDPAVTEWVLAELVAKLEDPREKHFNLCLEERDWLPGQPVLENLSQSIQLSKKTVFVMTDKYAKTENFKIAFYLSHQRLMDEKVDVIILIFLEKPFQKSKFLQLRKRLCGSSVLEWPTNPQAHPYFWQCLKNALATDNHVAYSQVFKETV

With `Cc1c(-c2[nH]c3ccc(C4CCC(N5CC6(CCOC6)C5)CC4)nc3c2C(C)C)cn2ncnc2c1C` (stereo not drawn) [Example 1061], the IC50 (in general, the concentration at which inhibition is half-maximal) at human TLR7 (setting [1]) was found to be 2.7 nM; at human TLR9 (setting [2]), 3.18 µM; at human TLR8 (setting [3]) it was 4.8 nM.
As to `CCCN(CCC)C1CCC(Oc2ccc3[nH]c(-c4cc(OC)c5ncnn5c4)c(C(C)C)c3n2)CC1` (stereo not drawn) [Example 611, 4-((3-isopropyl-2-(8-methoxy-[1,2,4]triazolo[1,5-a]pyridin-6-yl)-1H-pyrrolo[3,2-b]pyridin-5-yl)oxy)-N,N-dipropylcyclohexan-1-amine], the IC50 against human TLR7 (setting [4]) is 8.4 nM; on human TLR9 (setting [5]), 1.93 µM; at human TLR8 (setting [6]), 17 nM.
As to `CNC1CCC(c2ccc3[nH]c(-c4cn5ncnc5c(C)c4C)c(C(C)C)c3n2)CC1` (single isomer, unassigned) [Example 369, 4-(2-(7,8-dimethyl-[1,2,4]triazolo[1,5-a]pyridin-6-yl)-3-isopropyl-1H-pyrrolo[3,2-b]pyridin-5-yl)-N-methylcyclohexanamine], the values for the 50% inhibitory concentration (IC50) against human TLR7 (setting [7]), at human TLR9 (setting [8]) and at human TLR8 (setting [9]) were 0.46 nM, 0.402 µM and 1.3 nM, respectively.
As to `Cc1c(-c2[nH]c3ccc(C4CCC(N(C)C)CC4)nc3c2C(C)C)cn2ncnc2c1C` (stereo not drawn) [Example 353], the figures for the IC50 against human TLR7 (setting [7]), at human TLR9 (setting [8]) and at human TLR8 (setting [9]) were 0.64 nM, 0.94 µM and 0.96 nM, respectively.
On the same counts, the results for `COc1cc(-c2[nH]c3ccc(C4CCC(NCC(=O)N(C)C)CC4)nc3c2C(C)C)cn2ncnc12` (stereo not drawn) [Example 232] are 3 nM, 0.484 µM and 9.8 nM.
For the compound `Cc1c(-c2[nH]c3ccc(C4CCC(N5CCC6(COC6)C5)CC4)nc3c2C(C)C)cn2ncnc2c1C` (stereo not drawn) [Example 1060], the IC50 is 0.5 nM on human TLR7 (setting [1]), 2.6 µM on human TLR9 (setting [2]) and 0.5 nM on human TLR8 (setting [3]).
On to `Cc1cc(-c2[nH]c3ccc(C4CCN(CC(=O)N(C)C)CC4)nc3c2C(C)C)cn2ncnc12` [Example 533], for which the values for the IC50 at human TLR7 (setting [4]), on human TLR9 (setting [5]) and at human TLR8 (setting [6]) were 0.5 nM, 1.46 µM and 3.3 nM, respectively.
`COc1cc(-c2[nH]c3ccc(C4CCN(C5CCN(C)C5=O)CC4)nc3c2C(C)C)cn2ncnc12` (stereo not drawn) [Example 562]: the IC50 against human TLR7 (setting [4]) was 1.9 nM; on human TLR9 (setting [5]), 6.48 µM; at human TLR8 (setting [6]), 1.1 nM.
Take `Cc1c(-c2[nH]c3ccc(C4CC(N(C)C)C4)nc3c2C(C)C)cn2ncnc2c1C` (stereo not drawn) [Example 618]: the figures for the half-inhibitory concentration (IC50) at human TLR7 (setting [4]), on human TLR9 (setting [5]) and on human TLR8 (setting [6]) were 4.8 nM, 3.7 µM and 4.6 nM, respectively.
Take `CNCCC(=O)N1C[C@H](C)N(c2ccc3[nH]c(-c4cn5ncnc5c(C)c4C)c(C(C)C)c3n2)C[C@H]1C` [Example 1034]: the IC50 is 1400 nM against human TLR7 (setting [1]), 26.6 µM at human TLR9 (setting [2]) and greater than 3120 nM on human TLR8 (setting [3]).
`Cc1c(-c2[nH]c3ccc(N4C[C@@H](C)N[C@H](C)C4)nc3c2C(C)C)cn2ncnc2c1C` [Example 884]: the IC50 on human TLR7 (setting [1]) is 0.9 nM; at human TLR9 (setting [2]) it was 6.5 µM; at human TLR8 (setting [3]) it was 0.17 nM.
With `CC(C)c1c(-c2cn(CCS(C)(=O)=O)c3ncccc23)[nH]c2ccc(C3CCC(NCC(=O)N(C)C)CC3)nc12` (stereo not drawn) [Example 257], the figures for the IC50 against human TLR7 (setting [7]), at human TLR9 (setting [8]) and on human TLR8 (setting [9]) were 35 nM, 0.175 µM and 25 nM, respectively.
Consider `Cc1c(-c2[nH]c3ccc(N4CCN(C(=O)[C@H](C)N(C)C)CC4)nc3c2C(C)C)cn2ncnc2c1C` [Example 853], for which the results for the IC50 at human TLR7 (setting [1]), on human TLR9 (setting [2]) and on human TLR8 (setting [3]) were 0.51 nM, 9.57 µM and 0.66 nM, respectively.
For `[2H]C([2H])([2H])N(C([2H])([2H])[2H])C([2H])([2H])C(=O)N1CCN(c2ccc3[nH]c(-c4cn5ncnc5c(C)c4C)c(C(C)C)c3n2)CC1` (single isomer, unassigned) [Example 888], the IC50 at human TLR7 (setting [1]) stood at 1.2 nM; against human TLR9 (TLR9 IC50, HEK-Blue human TLR9 cells, ODN2006 5 nM), 12.2 µM; at human TLR8 (TLR8 IC50, HEK-Blue human TLR8 cells, R848 15.9 μM), 0.59 nM.
As to `Cc1c(-c2[nH]c3ccc(C4CCC(NC5COC5)CC4)nc3c2C(C)C)cn2ncnc2c1C` (stereo not drawn) [Example 351], the values for the IC50 at human TLR7 (setting [7]), at human TLR9 (setting [8]) and on human TLR8 (setting [9]) were 2.3 nM, 1.69 µM and 4.3 nM, respectively.
For the compound `COc1cc(-c2[nH]c3ccc(C4CCC(N5CC6(COC6)C5)CC4)nc3c2C(C)C)cn2ncnc12` (stereo not drawn) [Example 1037], the results for the IC50 against human TLR7 (setting [1]), on human TLR9 (setting [2]) and at human TLR8 (setting [3]) were 3.1 nM, 1.61 µM and 6.2 nM, respectively.
Turning to `Cc1cc(-c2[nH]c3ccc(C4CNCCO4)nc3c2C(C)C)cn(C)c1=O` (stereo not drawn) [Example 669], the IC50 is 7.4 nM against human TLR7 (setting [4]), 31.6 µM at human TLR9 (setting [5]) and 5.6 nM at human TLR8 (setting [6]).
For the compound `Cc1c(-c2[nH]c3ccc(N4CCN(C(=O)CCN(C)C)C[C@@H]4C)nc3c2C(C)C)cn2ncnc2c1C` [Example 811], the values for the IC50 against human TLR7 (setting [1]), on human TLR9 (setting [2]) and at human TLR8 (setting [3]) were 0.36 nM, 5.6 µM and 0.59 nM, respectively.
On to `COc1cc(-c2[nH]c3ccc(C4CCC(NC(C)C)CC4)nc3c2C(C)C)cn2ncnc12` (stereo not drawn) [Example 167], for which the IC50 at human TLR7 (setting [7]) was 0.43 nM; at human TLR9 (setting [8]), 0.156 µM; at human TLR8 (setting [9]), 1.7 nM.
The matching figures for `CCn1cc(-c2[nH]c3ccc(C4CCC(NC5CCOCC5)CC4)nc3c2C(C)C)c2cccnc21` (stereo not drawn) [Example 289]: 3.5 nM, 0.967 µM and 11 nM.
In the case of `Cc1c(-c2[nH]c3ccc(N4C[C@@H](C)N(CCC(N)=O)C[C@H]4C)nc3c2C(C)C)cn2ncnc2c1C` [Example 798], the IC50 was 4.2 nM on human TLR7 (setting [1]), 22.3 µM on human TLR9 (setting [2]) and 5.7 nM at human TLR8 (setting [3]).
On the same counts, the results for `Cc1c(-c2[nH]c3ccc(N4CCN(C5CCOCC5)C[C@@H]4C)nc3c2C(C)C)cn2ncnc2c1C` [Example 820] are 2.7 nM, 9.4 µM and 2 nM.
Take `COc1cc(-c2[nH]c3ccc(C4CCC(N5CC6(CCOC6)C5)CC4)nc3c2C(C)C)cn2ncnc12` (stereo not drawn) [Example 1069]: the 50% inhibitory concentration (IC50) against human TLR7 (setting [1]) was determined as 0.09 nM; on human TLR9 (setting [2]), 0.735 µM; on human TLR8 (setting [3]), 0.17 nM.
As for `Cc1c(-c2[nH]c3ccc(N4CCN(CC(N)=O)C[C@@H]4C)nc3c2C(C)C)cn2ncnc2c1C` [Example 809], the 50% inhibitory concentration (IC50) against human TLR7 (setting [1]) was 2.2 nM; on human TLR9 (setting [2]) it was 36 µM; on human TLR8 (setting [3]), 3.1 nM.
As for `COCCN(C)C1CCC(c2ccc3[nH]c(-c4cn5ncnc5c(C)c4C)c(C(C)C)c3n2)CC1` (stereo not drawn) [Example 391], the IC50 against human TLR7 (setting [7]) is 2.6 nM; at human TLR9 (setting [8]), 2.45 µM; at human TLR8 (setting [9]), 14 nM.
`Cc1c(-c2[nH]c3ccc(N4C[C@H](C)N(C(C)C)C[C@@H]4C)nc3c2C(C)C)cn2ncnc2c1C` [Example 793]: the results for the IC50 on human TLR7 (setting [4]), at human TLR9 (setting [5]) and on human TLR8 (setting [6]) were 1.4 nM, 7.83 µM and 1.4 nM, respectively.
On to `COc1cc(-c2[nH]c3ccc(CCC4CN(CC(C)(C)O)C4)nc3c2C(C)C)cn2ncnc12` [Example 693], for which the IC50 at human TLR7 (setting [4]) came to 6.5 nM; at human TLR9 (setting [5]), 0.437 µM; at human TLR8 (setting [6]) it was 15 nM.
For `COc1cc(-c2[nH]c3ccc(N4CCN(CCCS(C)(=O)=O)CC4)nc3c2C(C)C)cn2ncnc12` [Example 132], the IC50 was 2.8 nM against human TLR7 (setting [7]), 7.39 µM on human TLR9 (setting [8]) and 0.51 nM at human TLR8 (setting [9]).
Take `Cc1c(-c2[nH]c3ccc(C4CCC(N(CC#N)CC5(S(C)(=O)=O)CC5)CC4)nc3c2C(C)C)cn2ncnc2c1C` (stereo not drawn) [Example 475]: the IC50 is 1.4 nM on human TLR7 (setting [4]), 3.5 µM at human TLR9 (setting [5]) and 2.2 nM at human TLR8 (setting [6]).
As for `Cc1c(-c2[nH]c3ccc(N4C[C@@H](C)N(C(=O)CCN5CCC(F)(F)C5)C[C@@H]4C)nc3c2C(C)C)cn2ncnc2c1C` [Example 962], the IC50 against human TLR7 (setting [1]) is 3.7 nM; on human TLR9 (setting [2]) it was greater than 50 µM; on human TLR8 (setting [3]) it was 17 nM.
Consider `Cc1c(-c2[nH]c3ccc(C4CCC(N5CC(C#N)C5)CC4)nc3c2C(C)C)cn2ncnc2c1C` (stereo not drawn) [Example 434], for which the IC50 on human TLR7 (setting [4]) was determined as 1.5 nM; on human TLR9 (setting [5]) it was 7.43 µM; on human TLR8 (setting [6]), 2.4 nM.
For the compound `Cc1c(-c2[nH]c3ccc(N4CC(NC5CCOCC5)C4)nc3c2C(C)C)cn2ncnc2c1C` [Example 1, 1-(2-(7,8-dimethyl-[1,2,4]triazolo[1,5-a]pyridin-6-yl)-3-isopropyl-1H-pyrrolo[3,2-b]pyridin-5-yl)-N-(tetrahydro-2H-pyran-4-yl)azetidin-3-amine], the IC50 on human TLR7 (setting [7]) is 20 nM; on human TLR9 (setting [8]), 7.73 µM; at human TLR8 (setting [9]), 3.8 nM.
`COc1cc(-c2[nH]c3cc(C)c(C(=O)NC4CCN(C(C)C)CC4)nc3c2C(C)C)cn2ncnc12` [Example 731]: the IC50 against human TLR7 (setting [4]) stood at 4.6 nM; on human TLR9 (setting [5]) it was 1.64 µM; on human TLR8 (setting [6]), 15 nM.
For `Cc1c(-c2[nH]c3ccc(N4CCN(C(=O)CN5CC6(COC6)C5)[C@H](C)C4)nc3c2C(C)C)cn2ncnc2c1C` [Example 940], the values for the IC50 against human TLR7 (setting [1]), on human TLR9 (setting [2]) and on human TLR8 (setting [3]) were 1.7 nM, 8.34 µM and 0.66 nM, respectively.
As to `CC(C)c1c(-c2cn(CCS(C)(=O)=O)c3ncccc23)[nH]c2ccc(C3CCC(NCC4(S(C)(=O)=O)CC4)CC3)nc12` (stereo not drawn) [Example 259], the IC50 against human TLR7 (setting [7]) was found to be 19 nM; on human TLR9 (setting [8]), 0.321 µM; at human TLR8 (setting [9]), 7.1 nM.
Regarding `Cc1cc(-c2[nH]c3ccc(C4CCN(C5CCOCC5)CC4)nc3c2C(C)C)cn(C)c1=O` [Example 527], the half-inhibitory concentration (IC50) is 7.3 nM on human TLR7 (setting [4]), 1.16 µM at human TLR9 (setting [5]) and 3 nM on human TLR8 (setting [6]).

These data come from patent publication US10544143B2, “4-azaindole compounds” (BRISTOL-MYERS SQUIBB COMPANY, priority 2017, dated 2020).
